Source: paper PMC7224224, “Synthesis of diindolylmethane (DIM) bearing thiadiazole derivatives as a potent urease inhibitor” (Scientific Reports, 2020)

How the values were obtained:
[1] = biological target: jack bean urease (Canavalia ensiformis, UniProt P07374); assay: biochemical
Experimental: Urease is an enzyme (jack bean urease) that catalyzes the hydrolysis of urea into carbon dioxide and ammonia. The production of ammonia was measured by the indophenol method and used to determine the urease inhibitory activity[57],[58]. The percentage remaining activity was calculated from the formula % Remaining Activity = [(ODtest)/(ODcontrol) × 100]. Thiourea was used as a standard inhibitor. To calculate IC50 values, different concentrations of synthesized compounds and standards were assayed at the same reaction conditions.

jack bean urease, sequence (P07374 whole entry, looked up): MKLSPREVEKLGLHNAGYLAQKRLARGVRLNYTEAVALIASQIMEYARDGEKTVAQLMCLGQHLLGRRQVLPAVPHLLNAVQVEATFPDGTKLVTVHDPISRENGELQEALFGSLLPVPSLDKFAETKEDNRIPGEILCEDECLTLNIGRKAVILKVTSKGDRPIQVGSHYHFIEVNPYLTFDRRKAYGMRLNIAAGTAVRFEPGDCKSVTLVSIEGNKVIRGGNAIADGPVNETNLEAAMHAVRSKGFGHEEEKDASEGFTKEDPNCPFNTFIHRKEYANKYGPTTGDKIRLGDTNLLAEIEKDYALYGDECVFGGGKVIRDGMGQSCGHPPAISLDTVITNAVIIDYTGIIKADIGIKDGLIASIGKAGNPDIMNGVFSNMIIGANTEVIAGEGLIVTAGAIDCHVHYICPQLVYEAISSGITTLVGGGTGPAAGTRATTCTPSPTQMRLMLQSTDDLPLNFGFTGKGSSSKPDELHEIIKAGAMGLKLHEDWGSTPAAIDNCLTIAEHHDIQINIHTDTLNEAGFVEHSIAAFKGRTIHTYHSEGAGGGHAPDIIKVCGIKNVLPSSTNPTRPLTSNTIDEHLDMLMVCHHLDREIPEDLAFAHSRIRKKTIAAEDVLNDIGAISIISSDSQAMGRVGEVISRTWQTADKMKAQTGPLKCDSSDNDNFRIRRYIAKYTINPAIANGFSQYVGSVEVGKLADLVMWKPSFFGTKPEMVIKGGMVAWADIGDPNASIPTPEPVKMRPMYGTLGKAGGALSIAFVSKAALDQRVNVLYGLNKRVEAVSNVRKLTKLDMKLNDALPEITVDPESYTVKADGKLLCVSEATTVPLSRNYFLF

| SMILES | melting point [°C] | IC50 [1] [µM] |
| --- | --- | --- |
| O=S(=O)(Nc1nnc(-c2ccc(C(c3c[nH]c4ccc(Br)cc34)c3c[nH]c4ccc(Br)cc34)cc2)s1)c1ccccc1 [Compound 1, N-(5-(4-(bis(5-bromo-1H-indol-3-yl)methyl)phenyl)-1,3,4-thiadiazol-2-yl)benzenesulfonamide] | 301 to 302 | 13.2 ± 0.3 |
| O=[N+]([O-])c1ccc(S(=O)(=O)Nc2nnc(-c3ccc(C(c4c[nH]c5ccc(Br)cc45)c4c[nH]c5ccc(Br)cc45)cc3)s2)cc1 [Compound 2, N-(5-(4-(bis(5-bromo-1H-indol-3-yl)methyl)phenyl)-1,3,4-thiadiazol-2-yl)-4-nitrobenzenesulfonamide] | 312 to 313 | 1.8 ± 0.01 |
| O=[N+]([O-])c1ccccc1S(=O)(=O)Nc1nnc(-c2ccc(C(c3c[nH]c4ccc(Br)cc34)c3c[nH]c4ccc(Br)cc34)cc2)s1 [Compound 3, N-(5-(4-(bis(5-bromo-1H-indol-3-yl)methyl)phenyl)-1,3,4-thiadiazol-2-yl)-2-nitrobenzenesulfonamide] | 314 to 315 | 1.1 ± 0.01 |
| COc1ccc(O)c(S(=O)(=O)Nc2nnc(-c3ccc(C(c4c[nH]c5ccc(Br)cc45)c4c[nH]c5ccc(Br)cc45)cc3)s2)c1 [Compound 4, N-(5-(4-(bis(5-bromo-1H-indol-3-yl)methyl)phenyl)-1,3,4-thiadiazol-2-yl)-2-hydroxy-5-methoxybenzenesulfonamide] |  | 2.2 ± 0.1 |
| COc1ccc(Cl)cc1S(=O)(=O)Nc1nnc(-c2ccc(C(c3c[nH]c4ccc(Br)cc34)c3c[nH]c4ccc(Br)cc34)cc2)s1 [Compound 5, N-(5-(4-(bis(5-bromo-1H-indol-3-yl)methyl)phenyl)-1,3,4-thiadiazol-2-yl)-5-chloro-2-methoxybenzenesulfonamide] | 315 to 316 | 7.3 ± 0.1 |
| O=S(=O)(Nc1nnc(-c2ccc(C(c3c[nH]c4ccc(Br)cc34)c3c[nH]c4ccc(Br)cc34)cc2)s1)c1cc(Cl)c(Cl)cc1Cl [Compound 6, N-(5-(4-(bis(5-bromo-1H-indol-3-yl)methyl)phenyl)-1,3,4-thiadiazol-2-yl)-2,4,5-trichlorobenzenesulfonamide] | 299 to 300 | 0.7 ± 0.01 |
| O=S(=O)(Nc1nnc(-c2ccc(C(c3c[nH]c4ccc(Br)cc34)c3c[nH]c4ccc(Br)cc34)cc2)s1)c1ccc(Cl)cc1Cl [Compound 7, N-(5-(4-(bis(5-bromo-1H-indol-3-yl)methyl)phenyl)-1,3,4-thiadiazol-2-yl)-2,4-dichlorobenzenesulfonamide] |  | 2.3 ± 0.1 |
| O=[N+]([O-])c1ccc(S(=O)(=O)Nc2nnc(-c3ccc(C(c4c[nH]c5ccc(Br)cc45)c4c[nH]c5ccc(Br)cc45)cc3)s2)c([N+](=O)[O-])c1 [Compound 8, N-(5-(4-(bis(5-bromo-1H-indol-3-yl)methyl)phenyl)-1,3,4-thiadiazol-2-yl)-2,4-dinitrobenzenesulfonamide] |  | 0.5 ± 0.01 |
| O=[N+]([O-])c1ccc(S(=O)(=O)Nc2nnc(-c3ccc(C(c4c[nH]c5ccc(Br)cc45)c4c[nH]c5ccc(Br)cc45)cc3)s2)cc1Cl [Compound 9, N-(5-(4-(bis(5-bromo-1H-indol-3-yl)methyl)phenyl)-1,3,4-thiadiazol-2-yl)-3-chloro-4-nitrobenzenesulfonamide] | 318 to 319 | 1.1 ± 0.01 |
| O=S(=O)(Nc1nnc(-c2ccc(C(c3c[nH]c4ccc(Br)cc34)c3c[nH]c4ccc(Br)cc34)cc2)s1)c1ccc(Cl)c(Cl)c1 [Compound 10, N-(5-(4-(bis(5-bromo-1H-indol-3-yl)methyl)phenyl)-1,3,4-thiadiazol-2-yl)-3,4-dichlorobenzenesulfonamide] | 302 to 303 | 1.6 ± 0.01 |
| O=S(=O)(Nc1nnc(-c2ccc(C(c3c[nH]c4ccc(Br)cc34)c3c[nH]c4ccc(Br)cc34)cc2)s1)c1ccc2ccccc2c1 [Compound 11, N-(5-(4-(bis(5-bromo-1H-indol-3-yl)methyl)phenyl)-1,3,4-thiadiazol-2-yl)naphthalene-2-sulfonamide] | 313 to 314 | 33.2 ± 1.2 |
| Cc1ccc(Cl)c(S(=O)(=O)Nc2nnc(-c3ccc(C(c4c[nH]c5ccc(Br)cc45)c4c[nH]c5ccc(Br)cc45)cc3)s2)c1 [Compound 12, N-(5-(4-(bis(5-bromo-1H-indol-3-yl)methyl)phenyl)-1,3,4-thiadiazol-2-yl)-2-chloro-5-methylbenzenesulfonamide] | 301 to 302 | 8.5 ± 0.3 |
| Cc1ccc([N+](=O)[O-])c(S(=O)(=O)Nc2nnc(-c3ccc(C(c4c[nH]c5ccc(Br)cc45)c4c[nH]c5ccc(Br)cc45)cc3)s2)c1 [Compound 13, N-(5-(4-(bis(5-bromo-1H-indol-3-yl)methyl)phenyl)-1,3,4-thiadiazol-2-yl)-5 methyl-2-nitrobenzenesulfonamide] | 312 to 313 | 5.1 ± 0.1 |
| COc1ccc(Br)c(S(=O)(=O)Nc2nnc(-c3ccc(C(c4c[nH]c5ccc(Br)cc45)c4c[nH]c5ccc(Br)cc45)cc3)s2)c1 [Compound 14, N-(5-(4-(bis(5-bromo-1H-indol-3-yl)methyl)phenyl)-1,3,4-thiadiazol-2-yl)-2-bromo-5-methoxybenzenesulfonamide] | 309 to 310 | 19.8 ± 0.8 |
| COc1ccc([N+](=O)[O-])c(S(=O)(=O)Nc2nnc(-c3ccc(C(c4c[nH]c5ccc(Br)cc45)c4c[nH]c5ccc(Br)cc45)cc3)s2)c1 [Compound 15, N-(5-(4-(bis(5-bromo-1H-indol-3-yl)methyl)phenyl)-1,3,4-thiadiazol-2-yl)-5-methoxy-2-nitrobenzenesulfonamide] | 308 to 309 | 3.9 ± 0.1 |
| Cc1ccccc1S(=O)(=O)Nc1nnc(-c2ccc(C(c3c[nH]c4ccc(Br)cc34)c3c[nH]c4ccc(Br)cc34)cc2)s1 [Compound 16, N-(5-(4-(bis(5-bromo-1H-indol-3-yl)methyl)phenyl)-1,3,4-thiadiazol-2-yl)-2-methylbenzenesulfonamide] | 291 to 292 | 23.8 ± 1 |
| Cc1cccc(S(=O)(=O)Nc2nnc(-c3ccc(C(c4c[nH]c5ccc(Br)cc45)c4c[nH]c5ccc(Br)cc45)cc3)s2)c1 [Compound 17, N-(5-(4-(bis(5-bromo-1H-indol-3-yl)methyl)phenyl)-1,3,4-thiadiazol-2-yl)-3-methylbenzenesulfonamide] | 289 to 290 | 28.6 ± 1.2 |
| Cc1ccc(S(=O)(=O)Nc2nnc(-c3ccc(C(c4c[nH]c5ccc(Br)cc45)c4c[nH]c5ccc(Br)cc45)cc3)s2)cc1 [Compound 18, N-(5-(4-(bis(5-bromo-1H-indol-3-yl)methyl)phenyl)-1,3,4-thiadiazol-2-yl)-4-methylbenzenesulfonamide] | 285 to 286 | 20.4 ± 1.2 |
